Data from patent publication US20250213701A1, “MEDICAMENT FOR TREATING HUMAN TUMOR BASED ON ERF3A-TARGETING PROTEOLYSIS MECHANISM” (SUZHOU DEGEN BIO-MEDICAL CO., LTD., priority 2022, published 2025).

Experiments:
Format in all cases: cell-based, human
VCaP cells = experiment: Anti-proliferative toxicity against prostate cancer cell line Vcap (CCK8); conditions: 3 days; for IC50: Homo sapiens, 72 h, CCK8
Protocol: (§1) Example 82: Detection of Anti-Proliferative Toxicity Against Prostate Cancer Cell Lines Vcap, 22Rv1, and PC-3
(§2) Vcap cells (purchased from the Cell Bank of the Chinese Academy of Sciences, Cat. No. SCSP-5034) were subcultured in a culture medium (DMEM medium+1% penicillin-streptomycin dual-antibiotic solution+10% fetal bovine serum) in an incubator at 5% carbon dioxide and 37° C. 22Rv1 cells (purchased from the Cell Bank of the Chinese Academy of Sciences, Cat. No. TCHu100) were subcultured in a culture medium (RPMI-1640 medium+1% penicillin-streptomycin dual-antibiotic solution+10% fetal bovine serum) in an incubator at 5% carbon dioxide and 37° C.
VCap cells were seeded at 20000 cells/well (90 μL) on a 96-well plate and cultured for 72 h. The original medium was removed, and a new medium of 90 μL was added.
(§3) 10 mM compound stock solutions were prepared in DMSO.
For VCap cells, the compound stock solution was diluted with DMSO to give DMSO solutions 1-10 at concentrations of 0 μM, 80 μM, 16 μM, 3.2 μM, 1.5 μM, 0.5 μM, 0.15 μM, 0.05 μM, 0.025 μM, and 0.0005 μM.
For Vcap cells, 2 μL of each of the above solutions 1-10 was added to 98 μL of Vcap medium to give mixed solutions 20-29 of the compound and the medium.
For Vcap cells, 10 μL of each of the above solutions 20-29 was added to the above cell seed solution to give a total volume of 100 μL (90 μL+10 μL), where the concentrations of the compound in wells were 0 μM, 0.16 μM, 0.032 μM, 0.006 μM, 0.003 μM, 0.001 μM, 0.0003 μM, 0.0001 μM, 0.00005 μM, and 0.00001 μM. All concentrations were in triplicate.
(§4) After the above-treated cells were cultured for 3 days, 10 μL of the CCK8 solution (DOJINDO, Cat. No. PF725) was added to each well. The plate was incubated in an incubator at 37° C. for 1-4 h and then detected on a microplate reader for the reading at 450 nm.

22Rv1 cells = experiment: Anti-proliferative toxicity against prostate cancer cell line 22Rv1 (CCK8); conditions: 3 days; for IC50: Homo sapiens, 72 h, CCK8
Protocol: as §1, §2
22Rv1 cells were seeded at 5000 cells/well (90 μL) on a 96-well plate and cultured for 48 h.
as §3
(§5) For 22Rv1 cells and PC-3 cells, the compound stock solution was diluted with DMSO to give DMSO solutions 11-19 at concentrations of 0 μM, 500 μM, 100 μM, 20 μM, 4 μM, 0.8 μM, 0.16 μM, 0.032 μM, 0.0064 μM.
For 22Rv1 cells, 2 μL of each of the above solutions 11-19 was added to 98 μL of 22Rv1 medium to give mixed solutions 30-38 of the compound and the medium.
(§6) For 22Rv1 and PC-3 cells, 10 μL of each of the above solutions 30-38 or 39-47 was added to the above cell seed solution to give a total volume of 100 μL (90 μL+10 μL), where the concentrations of the compound in wells were 0 μM, 1.0 μM, 0.2 μM, 0.04 μM, 0.008 μM, 0.0016 μM, 0.00032 μM, 0.00006 μM, and 0.00001 μM. All concentrations were in triplicate.
as §4

PC-3 cells = experiment: Anti-proliferative toxicity against prostate cancer cell line PC-3 (CCK8); conditions: Homo sapiens, 72 h, 3 days
Protocol: as §1
PC-3 cells (purchased from the Cell Bank of the Chinese Academy of Sciences, Cat. No. SCSP-532) were subcultured in a culture medium (F12K medium+1% penicillin-streptomycin dual-antibiotic solution+10% fetal bovine serum) in an incubator at 5% carbon dioxide and 37° C.
PC-3 cells were seeded at 4000 cells/well (90 μL) on a 96-well plate and cultured for 24 h.
as §3, §5
For PC-3 cells, 2 μL of each of the above solutions 11-19 was added to 98 μL of PC-3 medium to give mixed solutions 39-47 of the compound and the medium.
as §6, §4

SMILES	IC50 (VCaP cells)	IC50 (22Rv1 cells)	IC50 (PC-3 cells)	further results
C[C@]12C=CC(=O)N[C@@H]1CC[C@@H]1[C@@H]2CC[C@]2(C)[C@@H](C(=O)Nc3cccc(OCCCNc4cccc5c4C(=O)N(C4CCC(=O)NC4=O)C5=O)c3)CC[C@@H]12 (stereo partly drawn) [C29, N-(3-((3-((4-(2-(3-(2,6-dioxopiperidine))-isoindole-1,3-dione))amino)propyl)oxy)phenyl)-3-oxo-4-aza-5α-androst-1-ene-17β-carboxamide]	0.0001 to 0.01 µM	0.0001 to 0.01 µM	> 1 µM	Anti-proliferative toxicity data in VCaP cells (VCaP cells; 0.00005 μM): 0.4%; Anti-proliferative toxicity data in VCaP cells (VCaP cells; 0.00010 μM): 25.8%; Anti-proliferative toxicity data in VCaP cells (VCaP cells; 0.00030 μM): 40.3%; Anti-proliferative toxicity data in VCaP cells (VCaP cells; 0.00100 μM): 70.8%; Anti-proliferative toxicity data in VCaP cells (VCaP cells; 0.00300 μM): 80.1%; Anti-proliferative toxicity data in VCaP cells (VCaP cells; 0.00600 μM): 88.3%; Anti-proliferative toxicity data in VCaP cells (VCaP cells; 0.03200 μM): 89.4%; Anti-proliferative toxicity data in VCaP cells (VCaP cells; 0.16000 μM): 90.0%; Anti-proliferative toxicity data in 22Rv1 cells (22Rv1 cells; 0.00006 μM): 0.2%; Anti-proliferative toxicity data in 22Rv1 cells (22Rv1 cells; 0.00032 μM): 5.6%; Anti-proliferative toxicity data in 22Rv1 cells (22Rv1 cells; 0.00160 μM): 27.6%; Anti-proliferative toxicity data in 22Rv1 cells (22Rv1 cells; 0.00800 μM): 64.2%; Anti-proliferative toxicity data in 22Rv1 cells (22Rv1 cells; 0.04000 μM): 70.8%; Anti-proliferative toxicity data in 22Rv1 cells (22Rv1 cells; 0.20000 μM): 72.4%; Anti-proliferative toxicity data in 22Rv1 cells (22Rv1 cells; 1.00000 μM): 73.5%
C[C@]12C=CC(=O)N[C@@H]1CC[C@@H]1[C@@H]2CC[C@]2(C)[C@@H](C(=O)Nc3cccc(N[C@H]4CCC[C@H](Nc5cccc6c5C(=O)N(C5CCC(=O)NC5=O)C6=O)C4)c3)CC[C@@H]12 (stereo partly drawn) [C60, N-(3-(N—(N-(4-(2-(3-(2,6-dioxopiperidine))-isoindole-1,3-dione))-1S,3S-cyclohexanediamine))phenyl)-3-oxo-4-aza-5α-androst-1-ene-17β-carboxamide]	0.01 to 1 µM	0.01 to 1 µM	> 1 µM	–
C[C@]12C=CC(=O)N[C@@H]1CC[C@@H]1[C@@H]2CC[C@]2(C)[C@@H](C(=O)Nc3cccc(OCCCOc4cccc5c4C(=O)N(C4CCC(=O)NC4=O)C5=O)c3)CC[C@@H]12 (stereo partly drawn) [C46, N-(3-((3-((4-(2-(3-(2,6-dioxopiperidine))-isoindole-1,3-dione))oxy)propyl)oxy)phenyl)-3-oxo-4-aza-5α-androst-1-ene-17β-carboxamide]	0.0001 to 0.01 µM	0.0001 to 0.01 µM	> 1 µM	–
C[C@]12C=CC(=O)N[C@@H]1CC[C@@H]1[C@@H]2CC[C@]2(C)[C@@H](C(=O)Nc3cccc(OCCCNc4ccc5c(c4)C(=O)N(C4CCC(=O)NC4=O)C5=O)c3)CC[C@@H]12 (stereo partly drawn) [C30, N-(3-((3-((5-(2-(3-(2,6-dioxopiperidine))-isoindole-1,3-dione))amino)propyl)oxy)phenyl)-3-oxo-4-aza-5α-androst-1-ene-17β-carboxamide]	> 1 µM	> 1 µM	> 1 µM	–
C[C@]12C=CC(=O)N[C@@H]1CC[C@@H]1[C@@H]2CC[C@]2(C)[C@@H](C(=O)Nc3ccc(OCCCCCNc4cccc5c4C(=O)N(C4CCC(=O)NC4=O)C5=O)cc3)CC[C@@H]12 (stereo partly drawn) [C19, N-(4-((5-((4-(2-(3-(2,6-dioxopiperidine))-isoindole-1,3-dione))amino)pentyl)oxy)phenyl)-3-oxo-4-aza-5α-androst-1-ene-17β-carboxamide]	> 1 µM	> 1 µM	> 1 µM	–
C[C@]12C=CC(=O)N[C@@H]1CC[C@@H]1[C@@H]2CC[C@]2(C)[C@@H](C(=O)Nc3cccc(OCCCCCCCCNc4ccc5c(c4)C(=O)N(C4CCC(=O)NC4=O)C5=O)c3)CC[C@@H]12 (stereo partly drawn) [C40, N-(3-((8-((5-(2-(3-(2,6-dioxopiperidine))-isoindole-1,3-dione))amino)octyl)oxy)phenyl)-3-oxo-4-aza-5α-androst-1-ene-17β-carboxamide]	0.01 to 1 µM	> 1 µM	> 1 µM	–
[2H][C@@]1(Nc2cccc(NC(=O)[C@H]3CC[C@H]4[C@@H]5CC[C@H]6NC(=O)C=C[C@]6(C)[C@H]5CC[C@]34C)c2)CCC[C@@]([2H])(Nc2cccc3c2C(=O)N(C2CCC(=O)NC2=O)C3=O)C1 (stereo partly drawn) [C68, N-(3-(N—(N-(4-(2-(3-(2,6-dioxopiperidine))-isoindole-1,3-dione))-1,3-dideutero-1R,3R-cyclohexanediamine))phenyl)-3-oxo-4-aza-5α-androst-1-ene-17β-carboxamide]	≤ 0.0001 µM	0.0001 to 0.01 µM	0.0001 to 0.01 µM	–
C[C@]12C=CC(=O)N[C@@H]1CC[C@@H]1[C@@H]2CC[C@]2(C)[C@@H](C(=O)Nc3cccc(OCCCCNc4ccc5c(c4)C(=O)N(C4CCC(=O)NC4=O)C5=O)c3)CC[C@@H]12 (stereo partly drawn) [C32, N-(3-((4-((5-(2-(3-(2,6-dioxopiperidine))-isoindole-1,3-dione))amino)butyl)oxy)phenyl)-3-oxo-4-aza-5α-androst-1-ene-17β-carboxamide]	> 1 µM	> 1 µM	> 1 µM	–
C[C@]12C=CC(=O)N[C@@H]1CC[C@@H]1[C@@H]2CC[C@]2(C)[C@@H](C(=O)Nc3cccc(NCCNc4cccc5c4C(=O)N(C4CCC(=O)NC4=O)C5=O)c3)CC[C@@H]12 (stereo partly drawn) [C56, N-(3-((2-((4-(2-(3-(2,6-dioxopiperidine))-isoindole-1,3-dione))amino)ethyl)amino)phenyl)-3-oxo-4-aza-5α-androst-1-ene-17β-carboxamide]	> 1 µM	> 1 µM	> 1 µM	–
C[C@]12C=CC(=O)N[C@@H]1CC[C@@H]1[C@@H]2CC[C@]2(C)[C@@H](C(=O)Nc3cccc(N[C@@H]4CCC[C@@H](Nc5cccc6c5CN([C@H]5CCC(=O)NC5=O)C6=O)C4)c3)CC[C@@H]12 [C65, N-(3-(N—(N-(4-(2-(3S-(2,6-dioxopiperidine))-1-oxo-2,3-dihydro-1H-isoindol))-1R,3R-cyclohexanediamine))phenyl)-3-oxo-4-aza-5α-androst-1-ene-17β-carboxamide]	0.01 to 1 µM	0.01 to 1 µM	> 1 µM	–
C[C@]12C=CC(=O)N[C@@H]1CC[C@@H]1[C@@H]2CC[C@]2(C)[C@@H](C(=O)Nc3cccc(N[C@@H]4CCC[C@@H](Nc5cccc6c5CN([C@@H]5CCC(=O)NC5=O)C6=O)C4)c3)CC[C@@H]12 [C66, N-(3-(N—(N-(4-(2-(3R-(2,6-dioxopiperidine))-1-oxo-2,3-dihydro-1H-isoindol))-1R,3R-cyclohexanediamine))phenyl)-3-oxo-4-aza-5α-androst-1-ene-17β-carboxamide]	> 1 µM	> 1 µM	> 1 µM	–
CC(C)(C)C(=O)OCN1C(=O)CCC(N2C(=O)c3cccc(NCCCOc4cccc(NC(=O)[C@H]5CC[C@H]6[C@@H]7CC[C@H]8NC(=O)C=C[C@]8(C)[C@H]7CC[C@]56C)c4)c3C2=O)C1=O (stereo partly drawn) [C49, N-(3-((3-((4-(2-(3-(1-pivaloyloxymethyl-2,6-dioxopiperidine))-isoindole-1,3-dione))amino)propyl)oxy)phenyl)-3-oxo-4-aza-5α-androst-1-ene-17β-carboxamide]	0.0001 to 0.01 µM	0.0001 to 0.01 µM	> 1 µM	–
